In brackets after ≈: the same amount, converted by molar mass.

This note sets out measurements from PMC10001202, “Preparation, Identification and Preliminary Application of the Fenvalerate Monoclonal Antibody in Six Kinds of Dark Tea” (Foods, 2023).

What all share (type): binding, BALB/c mice
The subject of one assay is McAb 2A11. Description: ic-ELISA cross-reactivity, McAb 2A11. The method, then:
(§1) The cross-reactivities with nine permethrin pesticides (deltamethrin, permethrin, cypermethrin, bifenthrin, fenpermethrin, fluobenzene, beta-cyhalothrin, dextrofenthrin, cypermethrin) were obtained, and McAb was determined to clarify the specificity of the monoclonal antibody prepared. The IC50 of the nine permethrin pesticides was measured by the ic-ELISA with the obtained McAb and the coating antigen. The cross-reactivity was calculated with the following Formula (1):Cross-reactivity (CR, %) = IC50 of Fen/IC50 of Fen analogs × 100%(1)

In the next assay the test system is McAb 5G2. Description: ic-ELISA cross-reactivity, McAb 5G2. The method, then:
as §1

A further assay concerns McAb 1B6. The assay is described as follows: ic-ELISA cross-reactivity, McAb 1B6. The method, then:
as §1

The mark [1] stands for this setting: IC50 of Fen/IC50 of analog × 100%.

As to `Cc1c(COC(=O)[C@@H]2[C@H](/C=C(\Cl)C(F)(F)F)C2(C)C)cccc1-c1ccccc1` (racemic) [Bifenthrin], the IC50 in the assay with McAb 2A11, with McAb 5G2 and with McAb 1B6 was >10,000 ng/mL throughout.
As for `CC1(C)[C@H](C(=O)O[C@H](C#N)c2cccc(Oc3ccccc3)c2)[C@@H]1/C=C(\Cl)C(F)(F)F` (racemic) [Lambda-cyhalothrin], the IC50 in the assay on McAb 2A11, in the assay on McAb 5G2 and in the assay with McAb 1B6 was >10,000 ng/mL in each case.
For the compound `CC1(C)C(C=C(Cl)Cl)C1C(=O)OC(C#N)c1ccc(F)c(Oc2ccccc2)c1` (stereo not drawn) [Cyfluthrin], the IC50 in the assay with McAb 2A11, in the assay with McAb 5G2 and in the assay with McAb 1B6 was >10,000 ng/mL each time.
Regarding `CC1(C)C(C=C(Cl)Cl)C1C(=O)OC(C#N)c1cccc(Oc2ccccc2)c1` (stereo not drawn) [Cypermethrin], the IC50 with McAb 2A11, with McAb 5G2 and in the assay with McAb 1B6 was >10,000 ng/mL in each case.
As to `CC(C)=CC1C(C(=O)OCc2cccc(Oc3ccccc3)c2)C1(C)C` [D-Phenothrin], the IC50 in the assay on McAb 2A11, in the assay with McAb 5G2 and in the assay on McAb 1B6 was >10,000 ng/mL throughout.
`CC1(C)[C@H](C(=O)O[C@H](C#N)c2cccc(Oc3ccccc3)c2)[C@@H]1C=C(Br)Br` [Deltamethrin]: the IC50 in the assay with McAb 2A11, in the assay with McAb 5G2 and in the assay with McAb 1B6 was >10,000 ng/mL throughout.
For `CC1(C)C(C(=O)OC(C#N)c2cccc(Oc3ccccc3)c2)C1(C)C` (stereo not drawn) [Fenpropathrin], the half-inhibitory concentration (IC50) with McAb 2A11, with McAb 5G2 and in the assay on McAb 1B6 was >10,000 ng/mL throughout.
Take `CC(C)C(C(=O)OC(C#N)c1cccc(Oc2ccccc2)c1)c1ccc(Cl)cc1` (stereo not drawn) [Fenvalerate]: the IC50 in the assay on McAb 2A11 is reported as 24.29 ng/mL (≈ 0.0578 µM); in the assay with McAb 5G2 it was 21.65 ng/mL (≈ 0.0516 µM); with McAb 1B6 it was 36.6 ng/mL (≈ 0.0872 µM). Further, the CR% with McAb 2A11 (setting [1]), in the assay on McAb 5G2 (setting [1]) and in the assay with McAb 1B6 (setting [1]) was 100% throughout.
In the case of `CC1(C)C(C=C(Cl)c2ccc(Cl)cc2)C1C(=O)OC(C#N)c1ccc(F)c(Oc2ccccc2)c1` (stereo not drawn) [Flumethrin], the half-inhibitory concentration (IC50) in the assay on McAb 2A11, with McAb 5G2 and with McAb 1B6 was >10,000 ng/mL each time.
With `CC1(C)C(C=C(Cl)Cl)C1C(=O)OCc1cccc(Oc2ccccc2)c1` (stereo not drawn) [Permethrin], the IC50 with McAb 2A11, in the assay with McAb 5G2 and with McAb 1B6 was >10,000 ng/mL throughout.
